In one data set the test system is Tau/aggregate. The data set can be described thus: Tau/aggregate inhibition in HEK 293 cells expressing mKate2-tagged Tau. The data set is classed as cell-based, Human. Particulars: Homo sapiens, HEK293. On the procedure: (§1) 1) HEK cells with tet-regulated expression of mKate2 tagged Tau were grown in DMEM medium (Dulbecco's Modified Eagle's Medium) containing 0.5 μg/mL doxycycline (Dox)(MP-Bio#198955), after 3-5 days Dox was removed by washing the cells twice with sterile phosphate buffered saline (PBS; Invitrogen#14190-144), cells were left in DMEM without Dox for 72 hours (to further clear remaining Dox in cells).
(§2) The test compounds (along with CytoID™ dye and Hoechst stain) were added to the cells and incubated for 3 hours. Reference compounds were also used in each plate, Rapamycin was used for autophagy induction and chloroquine was used for lysosomal inhibition. After 3 hours test compound was aspirated off and kept. Cells were then washed and read using a fluorescence plate reader. Hoescht, Cyto-ID™ and mKate2 were measured using 3 distinct wavelengths on the plate reader. The Hoescht measurement allowed normalisation of results across wells. After reading, test compound was re-added and the cells are left for a further 21 hours. At the 24 hour time point cells were once again washed and plates read using the fluorescence plate reader.
(§3) Proteostat™ assay was used to detect aggresomes via measurement of p62. Aggresomes are inclusion bodies that form when the ubiquitin-proteasome machinery is overwhelmed with aggregation-prone proteins. Typically, an aggresome forms in response to some cellular stress, such as hyperthermia, viral infection, or exposure to reactive oxygen species. Aggresomes may provide a cytoprotective function by sequestering the toxic, aggregated proteins and may also facilitate their ultimate elimination from cells by autophagy. Following the final plate read described in the Cyto-ID™ assay described above, Proteostat™ detection reagent was added to every well and the plate was incubated for 15 minutes. Following this incubation, the plate was read by fluorescence plate reader at the specified wavelength. After this plate read, the cells were fixed by incubating with warm paraformaldehyde for 8 minutes. The fixed cells were then read by plate reader as before.
Western blot assays were performed to determine protein changes in Tau and p62. Cells were cultured as above and incubated with test compounds for 24 h. Following test compound incubation, the test compound was aspirated off and cells were washed before harvesting. Cells were spun at a low speed and supernatant was aspirated to leave the cell pellet. The cell pellet was then homogenized in buffer, centrifuged at high speed, and the supernatant aspirated and further separated into total fraction and aggregate fraction allowing quantification of soluble and insoluble proteins. Western blots were run on the samples, gels transferred to nitrocellulose and incubated with antibodies for Tau and p62. After incubation with secondary antibodies for detection, the bands of protein were quantified by chemiluminescence.

The test system of another data set is Autophagy Markers. Description: Autophagy markers (Cyto-ID assay) in HEK 293 cells. It is filed as cell-based, Human. On the procedure: The dye used in the kit prevents its accumulation within lysosomes, but enables labelling of vacuoles associated with the autophagy pathway using the LC3 biomarker.
as §2
2) Test samples were prepared in warm FluoroBrite™ DMEM and with 10% FBS and 1% NEAA (FB-DMEM). Rapamycin 200 nM (Enzo #BML-A275-0025) was used for autophagy induction and […] chloroquine was used for lysosomal inhibition (bafilomycin or similar compounds were not used as they give a false negative result in the assay). Dimethyl Sulfoxide 1:1000 (DMSO; Fisher #BP231-100) was used as control. Autophagosome marker Cyto ID™ (1:500; Enzo #ENZ-51031-k200) and Hoechst (1:200) was added to these test sample preparations before treating the cells.
7) At 24 hours post reaction all medium was aspirated and the plate was washed 3 times with warm FB-DMEM, and read again for Hoescht (Ex=355 nm Em=446 nm), CytoID™ (Ex=463 nm; Em=534 nm) and mKate2 (Ex=575 nm; Em=630 nm) in 80 μl of FB-DMEM.

The test system of a further data set is phospholipase D (PLD). The data set can be described thus: PLD assay (conversion of phospholipids to phosphatidylethanols in presence of ethanol, LC/MS). It is filed as cell-based, mice. Particulars: PLD activation, fold; 24 hours incubation. The protocol:
Cells were incubated with test compound for 24 hours. 25 minutes prior to harvest at 24 hours, 3% ethanol solution was added to the wells to catalyze cleavage of the phospholipid. Cells were then placed on ice, washed and harvested. The harvested cells were centrifuged and the supernatant was aspirated and the pellet kept. The pellet was resuspended and chloroform/methanol lipid extraction was performed. The sample was centrifuged and the organic layer was separated, dried under nitrogen and stored at −80° C. On the day of analysis, samples were resuspended and analysed by LC/MS. All phosphatidylethanol species (PEtOH32-40:0-6:16/18:0/1) were combined together and represented as total lipid content (all lipid species).
(§4) The assay was run in e18 primary cortical neurons from PLD1 or PLD2 KO mice cultured for 14 days. Alternatively, the assay can be run in the cells described above in the presence of excess PLD1 or PLD2 inhibitor to preclude that particular action from contributing to the effect of the drug.
(§5) 4) On the day of experiment, cells were washed in warmed HBSS twice before media containing test compound (n=3 per compound per dose), inhibitor (355 nM ML298 or 50 nM VU0150669), or vehicle are added to the wells (1.5 mL in 6 well, 600 μL in 12 well). Plates were incubated for 24 hours at 37° C. with 5% CO2.
5) 25 minutes prior to harvest, a 165 μL of a 3% ethanol solution was added to each well.
PLD activation converts phospholipids to phosphatidylethanols in the presence of ethanol. […] FIPI is a non-competitive inhibitor of PLD activity and was used as a negative control.

The nature of data set [1]: Cytotoxicity LC50 (XTT assay for cell viability).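 Note: cells carry doxycycline-repressible Tau, induced by withdrawing doxycycline for 72 h before compound exposure.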 The data set is classed as cell-based. Particulars: human, transfected HEK 293 cells that express mKate2-tagged Tau.
Procedure: The cells were grown in the presence of the antibiotic doxycycline. When the antibiotic is removed the cells produce Tau (which can be quantified), thus allowing the test compounds' effects on Tau's production to be compared. Doxycycline was removed for 72 hours prior to exposure to the test compounds to promote sufficient Tau production. Cells were subsequently plated into plates for each of the assays described below.
The nature of data set [2]: Photodiode array (PDA) detection of compound in mouse brain. It is filed as in vivo. Particulars: FIG. 1. From the text:
FIG. 1 is a graph showing a photodiode array (PDA) spectrum of WHYKD8 in mouse brain.
A photodiode array (PDA) was used to detect WHYKD8 in mouse brain (FIG. 1).

For another data set, the system named is aggregates (Proteostat). Description: Proteostat protein aggregation assay EC50. It is filed as cell-based. Particulars: Homo sapiens; 50% reduction of Proteostat levels (fluorescent marker of aggregates).
Source text: as §3
8) Detection solution was prepared by adding 10 μl Proteostat™ detection reagent (ENZ-51023-KP002) and 200 μL of 10× assay buffer into 1790 μL water and mixing well.
9) 20 μL was added per well (each well had 80 μl of Fluorobrite™ media with no FBS) and incubated in the dark for 15 min at room temperature.
10) Fluorescence for Proteostat™ (Ex=550 nm; Em=600 nm) was then read.

Another data set has as its system mKate2 tagged Tau. Description: Tau-mKate2 fluorescence EC50. It is filed as cell-based. As to conditions: Homo sapiens; 50% reduction of mKate2 fluorescence (tau tag). The protocol: as §1
as §2, with “After 3 hours test compound was aspirated off and kept.” left out, “The Hoescht measurement allowed normalisation of results across wells.” left out
5) Treatment plate was then washed quickly 3 times with warm FB-DMEM (100 μL/well). […] At this point, the plate was ready for reading. See details in Reading Plate section. Hoescht was read at Excitation wavelength (Ex)=355 nm & Emission wavelength (Em)=446 nm. mKate2 was read at Ex=575 nm & Em=630 nm. Cyto-ID™ was read at Ex=463 nm & Em=534 nm. […]

The next data set addresses T1, PLD1 (Homo sapiens, UniProt Q13393).
T1 construct: endogenous in cells; host or cells: HEK 293 (Jump-In) cells with tet-regulated mKate2-Tau
T1 sequence (Q13393 1-1074): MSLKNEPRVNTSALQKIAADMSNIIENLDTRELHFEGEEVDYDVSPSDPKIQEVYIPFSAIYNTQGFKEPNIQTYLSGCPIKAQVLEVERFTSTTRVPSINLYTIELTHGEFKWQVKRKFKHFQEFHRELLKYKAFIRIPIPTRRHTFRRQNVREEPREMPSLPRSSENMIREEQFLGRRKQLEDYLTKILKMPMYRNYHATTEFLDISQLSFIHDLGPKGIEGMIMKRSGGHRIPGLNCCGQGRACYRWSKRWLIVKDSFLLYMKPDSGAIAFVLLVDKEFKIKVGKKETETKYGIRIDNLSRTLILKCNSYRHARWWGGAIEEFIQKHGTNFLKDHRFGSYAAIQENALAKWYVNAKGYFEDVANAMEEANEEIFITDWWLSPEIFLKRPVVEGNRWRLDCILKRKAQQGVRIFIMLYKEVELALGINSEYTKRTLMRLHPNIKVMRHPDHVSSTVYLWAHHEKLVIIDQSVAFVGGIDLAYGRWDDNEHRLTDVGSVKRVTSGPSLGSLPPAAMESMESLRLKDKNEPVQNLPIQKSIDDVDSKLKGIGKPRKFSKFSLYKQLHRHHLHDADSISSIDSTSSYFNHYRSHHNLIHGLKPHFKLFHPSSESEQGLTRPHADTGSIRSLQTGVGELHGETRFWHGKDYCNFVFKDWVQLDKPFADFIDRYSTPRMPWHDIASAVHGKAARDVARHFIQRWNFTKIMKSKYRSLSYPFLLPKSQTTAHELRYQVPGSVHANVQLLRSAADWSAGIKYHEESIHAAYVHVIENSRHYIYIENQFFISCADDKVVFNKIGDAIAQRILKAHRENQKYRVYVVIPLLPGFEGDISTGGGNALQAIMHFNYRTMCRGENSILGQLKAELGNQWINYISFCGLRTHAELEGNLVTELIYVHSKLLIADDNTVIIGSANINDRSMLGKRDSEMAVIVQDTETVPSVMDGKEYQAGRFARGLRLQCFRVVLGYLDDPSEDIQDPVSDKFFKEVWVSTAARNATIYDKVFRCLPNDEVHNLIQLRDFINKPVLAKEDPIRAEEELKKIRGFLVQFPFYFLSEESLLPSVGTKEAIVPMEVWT
The data set can be described thus: PLD1 activity: Proteostat/mKate2 with PLD2 inhibitor ML298. It is filed as cell-based. Particulars: with ML298, PLD2 inhibitor (355 nM). The protocol: as §4, §5

For a further data set, the target named is T2, PLD2 (Homo sapiens, UniProt O14939).
T2 construct: endogenous in cells; host or cells: HEK 293 (Jump-In) cells with tet-regulated mKate2-Tau
T2 sequence (O14939 whole entry): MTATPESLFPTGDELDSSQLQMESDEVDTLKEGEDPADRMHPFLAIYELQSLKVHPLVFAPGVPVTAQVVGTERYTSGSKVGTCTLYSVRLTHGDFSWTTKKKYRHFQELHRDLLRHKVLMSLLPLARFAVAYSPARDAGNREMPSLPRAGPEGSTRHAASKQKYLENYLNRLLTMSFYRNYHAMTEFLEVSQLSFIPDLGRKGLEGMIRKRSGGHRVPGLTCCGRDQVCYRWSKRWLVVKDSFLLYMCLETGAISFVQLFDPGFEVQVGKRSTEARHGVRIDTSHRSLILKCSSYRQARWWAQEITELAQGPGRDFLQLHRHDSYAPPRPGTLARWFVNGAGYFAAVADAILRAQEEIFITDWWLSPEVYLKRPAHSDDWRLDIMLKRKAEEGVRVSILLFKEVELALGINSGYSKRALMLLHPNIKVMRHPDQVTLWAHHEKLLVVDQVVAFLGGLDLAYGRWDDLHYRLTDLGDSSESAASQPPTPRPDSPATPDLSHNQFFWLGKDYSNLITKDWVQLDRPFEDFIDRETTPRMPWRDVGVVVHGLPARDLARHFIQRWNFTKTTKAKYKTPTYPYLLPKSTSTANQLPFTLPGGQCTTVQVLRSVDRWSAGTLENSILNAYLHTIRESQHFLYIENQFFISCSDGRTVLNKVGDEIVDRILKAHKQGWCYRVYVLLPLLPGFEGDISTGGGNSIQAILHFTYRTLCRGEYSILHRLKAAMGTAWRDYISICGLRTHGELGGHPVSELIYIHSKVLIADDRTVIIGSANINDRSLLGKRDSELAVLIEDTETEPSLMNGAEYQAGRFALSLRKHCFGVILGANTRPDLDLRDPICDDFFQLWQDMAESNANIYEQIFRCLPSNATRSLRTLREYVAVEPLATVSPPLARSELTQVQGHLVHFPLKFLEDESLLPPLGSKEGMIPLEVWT
The data set can be described thus: PLD2 activity: Proteostat/mKate2 with PLD1 inhibitor VU0150669. It is filed as cell-based. Particulars: for EC50: with PLD1 inhibitor VU0150669, 50 nM. The protocol: as §4, §5

The results in this text go back to patent publication US10487091B2, “Activators of autophagic flux and phospholipase D and clearance of protein aggregates including tau and treatment of proteinopathies” (THE TRUSTEES OF COLUMBIA UNIVERSITY IN THE CITY OF NEW YORK, priority 2015, dated 2019).

Like-named read-outs stand apart in the source and are kept apart here. Bounds are passed on as bounds.

For `Oc1ccc(CCNc2ncnc3ccc(Cl)cc23)cc1` [WHYKD8], the inhibition at 1 µM with Tau/aggregate was found to be 30%. Besides, in the data set on Autophagy Markers, the “% Increase Autophagy Markers” value is on record as 25%. Moreover, the PLD in the data set with phospholipase D (PLD) is 2.8X. Besides, in data set [1] (read-out: Cyto-toxixity LC50), the CC50 was more than 100 µM. Moreover, the “detection in mouse brain” value in [2] was “readily detected”.

For the molecule `c1cnc2c(SC3CCCC3)ncnc2c1` [WHYKD36], the CC50 in data set [1] (XTT assay, 200 = upper concentration limit tested, read-out: LC50 (the source's name)) is 67 µM. For the same molecule, the EC50 came to 383 nM in the data set on aggregates (Proteostat); 1040 nM with mKate2 tagged Tau; 394 nM at PLD1 (read-out: Proteostat (nM) using pharmacological inhibitor PLD1); 1330 nM on PLD1 (read-out: mKate2 (nM) using pharmacological inhibitor PLD1); 604 nM on PLD2 (read-out: Proteostat (nM) using pharmacological inhibitor PLD2); 2280 nM on PLD2 (read-out: mKate2 (nM) using pharmacological inhibitor PLD2). At PLD2 (Proteostat readout), the “Proteostat PLD2/PLD1 ratio” value is on record as 1.5. Moreover, on PLD2 (mKate2 readout), the “mKate2 PLD2/PLD1 ratio” value came to 1.7.
